From PubChem BioAssay AID248 (DTP/NCI, 2004)
Several values for one entry are separate records, joined by “and”; a condition that tells them apart may be missing. Equal values may be shown once. Inconclusive results and toxic doses are left out. No stated cut-off is given here; in the data, active means T/C of 150% or more; inactive means T/C below 125%.

System: L1210 leukemia ip in BDF1 mice, survival T/C
Assay: NCI In Vivo Anticancer Drug Screen. Data for tumor model L1210 Leukemia (intraperitoneal) in B6D2F1 (BDF1) mice
Settings: endpoint: mean survival time, higher = longer survival
Outline: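 In this screen, tumor-bearing mice given compound are compared to those given vehicle, and their survival values are reported as a treated-to-control quotient.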

[1] = dose: 100.0 mg/kg/injection, schedule: Q01DX001 (ip), vehicle: saline
[2] = dose: 100.0 mg/kg/injection, schedule: Q04DX003 (ip), vehicle: saline
[3] = dose: 200.0 mg/kg/injection, schedule: Q04DX003 (ip), vehicle: saline

Measured: T/C

[Cl][Pt+2][Cl].[NH-]C1CCCC1.[NH-]C1CCCC1
inactive: dose: 10.0 mg/kg/injection, schedule: Q01DX009 (ip), vehicle: Klucel (hydroxypropylcellulose) (HPC) 102 % of control | dose: 20.0 mg/kg/injection, schedule: Q01DX009 (ip), vehicle: Klucel (hydroxypropylcellulose) (HPC) 116 % of control | dose: 20.0 mg/kg/injection, schedule: Q04DX003 (ip), vehicle: Klucel (hydroxypropylcellulose) (HPC) 121 % of control | dose: 40.0 mg/kg/injection, schedule: Q01DX005 (ip), vehicle: olive oil, sesame oil, peanut oil 109 % of control | dose: 40.0 mg/kg/injection, schedule: Q01DX009 (ip), vehicle: Klucel (hydroxypropylcellulose) (HPC) 107 % of control | dose: 40.0 mg/kg/injection, schedule: Q04DX003 (ip), vehicle: Klucel (hydroxypropylcellulose) (HPC) 111 % of control and 123 % of control | dose: 66.0 mg/kg/injection, schedule: Q01DX005 (ip), vehicle: olive oil, sesame oil, peanut oil 112 % of control | dose: 80.0 mg/kg/injection, schedule: Q01DX009 (ip), vehicle: Klucel (hydroxypropylcellulose) (HPC) 121 % of control | dose: 80.0 mg/kg/injection, schedule: Q04DX003 (ip), vehicle: Klucel (hydroxypropylcellulose) (HPC) 117 % of control | dose: 100.0 mg/kg/injection, schedule: Q01DX005 (ip), vehicle: olive oil, sesame oil, peanut oil 120 % of control | dose: 150.0 mg/kg/injection, schedule: Q01DX005 (ip), vehicle: olive oil, sesame oil, peanut oil 115 % of control | dose: 160.0 mg/kg/injection, schedule: Q01DX009 (ip), vehicle: Klucel (hydroxypropylcellulose) (HPC) 124 % of control | dose: 160.0 mg/kg/injection, schedule: Q04DX003 (ip), vehicle: Klucel (hydroxypropylcellulose) (HPC) 108 % of control and 112 % of control | dose: 320.0 mg/kg/injection, schedule: Q01DX009 (ip), vehicle: Klucel (hydroxypropylcellulose) (HPC) 96 % of control | dose: 320.0 mg/kg/injection, schedule: Q04DX003 (ip), vehicle: Klucel (hydroxypropylcellulose) (HPC) 118 % of control

O=C(Nc1ccc(C2=NCCN2)c(Cl)c1)c1cccc(C(=O)Nc2ccc(C3=NCCN3)c(Cl)c2)c1
inactive: dose: 15.0 mg/kg/injection, schedule: Q01DX Z (ip), vehicle: carboxymethylcellulose (CMC) 93 % of control | dose: 30.0 mg/kg/injection, schedule: Q01DX Z (ip), vehicle: carboxymethylcellulose (CMC) 86 % of control

CC(=O)Nc1cc(Cl)c(Nc2cc(S(=O)(=O)O)c(N)c3c2C(=O)c2ccccc2C3=O)c(Cl)c1
inactive: dose: 75.0 mg/kg/injection, schedule: Q01DX001 (ip), vehicle: saline 96 % of control | dose: 150.0 mg/kg/injection, schedule: Q01DX001 (ip), vehicle: saline 88 % of control

O=NN(c1ccccc1)c1ccc2ccccc2c1
inactive: dose: 100.0 mg/kg/injection, schedule: Q04DX003 (ip), vehicle: Klucel (hydroxypropylcellulose) (HPC) 105 % of control | dose: 200.0 mg/kg/injection, schedule: Q04DX003 (ip), vehicle: Klucel (hydroxypropylcellulose) (HPC) 110 % of control | dose: 400.0 mg/kg/injection, schedule: Q04DX003 (ip), vehicle: Klucel (hydroxypropylcellulose) (HPC) 110 % of control

CC1C(C(=O)O)CC([N+](=O)[O-])C(Cl)C1[N+](=O)[O-] (configuration not stated)
inactive: dose: 25.0 mg/kg/injection, schedule: Q01DX001 (ip), vehicle: carboxymethylcellulose (CMC) 92 % of control | dose: 25.0 mg/kg/injection, schedule: Q04DX003 (ip), vehicle: carboxymethylcellulose (CMC) 95 % of control | dose: 50.0 mg/kg/injection, schedule: Q01DX001 (ip), vehicle: carboxymethylcellulose (CMC) 97 % of control | dose: 50.0 mg/kg/injection, schedule: Q01DX009 (ip), vehicle: carboxymethylcellulose (CMC) 95 % of control and 102 % of control | dose: 50.0 mg/kg/injection, schedule: Q04DX003 (ip), vehicle: carboxymethylcellulose (CMC) 98 % of control | dose: 100.0 mg/kg/injection, schedule: Q01DX001 (ip), vehicle: carboxymethylcellulose (CMC) 102 % of control | dose: 100.0 mg/kg/injection, schedule: Q01DX009 (ip), vehicle: carboxymethylcellulose (CMC) 90 % of control | dose: 100.0 mg/kg/injection, schedule: Q04DX002 (ip), vehicle: carboxymethylcellulose (CMC) 101 % of control and 91 % of control | dose: 100.0 mg/kg/injection, schedule: Q04DX003 (ip), vehicle: carboxymethylcellulose (CMC) 102 % of control | dose: 200.0 mg/kg/injection, schedule: Q04DX002 (ip), vehicle: carboxymethylcellulose (CMC) 92 % of control and 105 % of control

CCC[CH2][Sn]1([CH2]CCC)[O]C(=O)C2C(C=C(C)C)C=C(C)C(C)C2C(=O)[O]1 (configuration not stated)
inactive: dose: 5.0 mg/kg/injection, schedule: Q01DX001 (ip), vehicle: saline 93 % of control | dose: 10.0 mg/kg/injection, schedule: Q01DX001 (ip), vehicle: saline 104 % of control | dose: 20.0 mg/kg/injection, schedule: Q01DX001 (ip), vehicle: saline 104 % of control | dose: 40.0 mg/kg/injection, schedule: Q01DX001 (ip), vehicle: saline 96 % of control | dose: 80.0 mg/kg/injection, schedule: Q01DX001 (ip), vehicle: saline 102 % of control | [1] 117 % of control

C=CCc1ccc(OCCOCCN(C/C=C(\C)CCC=C(C)C)C/C=C(\C)CCC=C(C)C)c(OC)c1
inactive: dose: 25.0 mg/kg/injection, schedule: Q04DX002 (ip), vehicle: Klucel (hydroxypropylcellulose) (HPC) 108 % of control | dose: 50.0 mg/kg/injection, schedule: Q04DX002 (ip), vehicle: Klucel (hydroxypropylcellulose) (HPC) 96 % of control | dose: 100.0 mg/kg/injection, schedule: Q04DX002 (ip), vehicle: Klucel (hydroxypropylcellulose) (HPC) 99 % of control

CC1CN=C(c2ccc(NC(=O)c3ccc(C(=O)Nc4ccc(C5=NCC(C)N5)cc4)c(N)c3)cc2)N1 (configuration not stated)
inactive: dose: 15.0 mg/kg/injection, schedule: Q01DX Z (ip), vehicle: saline 92 % of control | dose: 30.0 mg/kg/injection, schedule: Q01DX Z (ip), vehicle: saline 86 % of control | dose: 62.5 mg/kg/injection, schedule: Q01DX010 (oral), vehicle: saline 100 % of control | dose: 125.0 mg/kg/injection, schedule: Q01DX010 (oral), vehicle: saline 100 % of control | dose: 250.0 mg/kg/injection, schedule: Q01DX010 (oral), vehicle: saline 101 % of control | dose: 500.0 mg/kg/injection, schedule: Q01DX010 (oral), vehicle: saline 105 % of control

COc1cc2c(cc1O)CCCC(C)(C)C2=O
inactive: dose: 50.0 mg/kg/injection, schedule: Q01DX009 (ip), vehicle: saline with Tween-80 104 % of control | dose: 100.0 mg/kg/injection, schedule: Q01DX009 (ip), vehicle: saline with Tween-80 93 % of control | dose: 200.0 mg/kg/injection, schedule: Q01DX009 (ip), vehicle: saline with Tween-80 90 % of control

O=[N+]([O-])c1ccc(N=C(Cl)c2cc(N3CCOCC3)ccn2)cc1
inactive: [1] 94 % of control | dose: 200.0 mg/kg/injection, schedule: Q01DX001 (ip), vehicle: saline 94 % of control | dose: 400.0 mg/kg/injection, schedule: Q01DX001 (ip), vehicle: saline 95 % of control

NC(CS)=NCCc1nc2ccccc2[nH]1
inactive: dose: 100.0 mg/kg/injection, schedule: Q04DX002 (ip), vehicle: saline 107 % of control

O=C1/C(=C/c2cccc([N+](=O)[O-])c2)CCc2ccccc21
inactive: dose: 100.0 mg/kg/injection, schedule: Q04DX003 (ip), vehicle: acetone 109 % of control | dose: 200.0 mg/kg/injection, schedule: Q04DX003 (ip), vehicle: acetone 101 % of control | dose: 400.0 mg/kg/injection, schedule: Q04DX003 (ip), vehicle: acetone 96 % of control

O=C(CCCCC(=O)Nc1ccc(C(=O)Nc2cc(C3=NCCN3)cc(C3=NCCN3)c2)cc1)Nc1ccc(C(=O)Nc2cc(C3=NCCN3)cc(C3=NCCN3)c2)cc1
inactive: dose: 35.0 mg/kg/injection, schedule: Q01DX Z (ip), vehicle: saline 102 % of control | dose: 55.0 mg/kg/injection, schedule: Q01DX Z (ip), vehicle: saline 103 % of control

O=C(O)CCI
inactive: dose: 50.0 mg/kg/injection, schedule: Q01DX009 (ip), vehicle: saline 98 % of control | dose: 100.0 mg/kg/injection, schedule: Q01DX009 (ip), vehicle: saline 90 % of control | dose: 100.0 mg/kg/injection, schedule: Q04DX003 (ip), vehicle: other 102 % of control | dose: 200.0 mg/kg/injection, schedule: Q01DX009 (ip), vehicle: saline 100 % of control | dose: 200.0 mg/kg/injection, schedule: Q04DX003 (ip), vehicle: other 96 % of control

O=C1N(c2ccccc2)C(c2ccc([N+](=O)[O-])cc2)C1(c1ccccc1)c1ccccc1 (configuration not stated)
inactive: dose: 100.0 mg/kg/injection, schedule: Q04DX003 (ip), vehicle: gum acacia 96 % of control | dose: 200.0 mg/kg/injection, schedule: Q04DX003 (ip), vehicle: gum acacia 89 % of control | dose: 400.0 mg/kg/injection, schedule: Q04DX003 (ip), vehicle: gum acacia 96 % of control

COC1CCC2CC3C4Cc5cn[nH]c5C5OC1C2C54CCN3C (configuration not stated)
inactive: [2] 95 % of control | [3] 86 % of control

NCCS(=O)c1ccccc1 (configuration not stated)
inactive: [2] 96 % of control | [3] 96 % of control | dose: 400.0 mg/kg/injection, schedule: Q04DX003 (ip), vehicle: saline 113 % of control
